Data published in the NIST ThermoML archive (doi:10.1016/j.fluid.2004.12.013).
± gives the expanded uncertainty stated by the source.

Assay: excess molar enthalpy (molar enthalpy of mixing); xn = mol fraction of the nth substance listed
Conditions: 298.15 K, 101.3 kPa, Liquid

CCCCCCCCC [nonane] + CCCCCO
Conditions | excess molar enthalpy [kcal/mol]
x2 = 0.0545 | 0.0989 ± 0.00406
x2 = 0.0997 | 0.123 ± 0.00478
x2 = 0.1605 | 0.141 ± 0.0055
x2 = 0.2245 | 0.155 ± 0.00598
x2 = 0.2862 | 0.163 ± 0.00621
x2 = 0.3535 | 0.166 ± 0.00621
x2 = 0.4025 | 0.165 ± 0.00621
x2 = 0.4455 | 0.164 ± 0.00621
x2 = 0.4998 | 0.16 ± 0.00621
x2 = 0.5489 | 0.152 ± 0.00574
x2 = 0.6006 | 0.142 ± 0.0055
x2 = 0.6527 | 0.129 ± 0.00502
x2 = 0.7058 | 0.112 ± 0.00454
x2 = 0.7524 | 0.098 ± 0.00406
x2 = 0.7962 | 0.0789 ± 0.00335
x2 = 0.8478 | 0.0614 ± 0.00263
x2 = 0.8935 | 0.0411 ± 0.00191
x2 = 0.9382 | 0.0206 ± 0.00143

CCCCCCCCC [nonane] + COC(C)(C)C
Conditions | excess molar enthalpy [kcal/mol]
x2 = 0.0816 | 0.0313 ± 0.00167
x2 = 0.1472 | 0.0538 ± 0.00239
x2 = 0.1747 | 0.0633 ± 0.00287
x2 = 0.2383 | 0.0825 ± 0.00335
x2 = 0.2404 | 0.0825 ± 0.00335
x2 = 0.3312 | 0.102 ± 0.00406
x2 = 0.3912 | 0.109 ± 0.0043
x2 = 0.4867 | 0.116 ± 0.00454
x2 = 0.6601 | 0.104 ± 0.0043
x2 = 0.7157 | 0.0937 ± 0.00382
x2 = 0.7399 | 0.0887 ± 0.00359
x2 = 0.7773 | 0.0805 ± 0.00335
x2 = 0.8129 | 0.0729 ± 0.00311
x2 = 0.8723 | 0.0552 ± 0.00239
x2 = 0.895 | 0.0478 ± 0.00215
x2 = 0.9235 | 0.0413 ± 0.00191
x2 = 0.9285 | 0.0337 ± 0.00167
x2 = 0.9459 | 0.0301 ± 0.00167
x2 = 0.9573 | 0.0249 ± 0.00143
x2 = 0.9632 | 0.0196 ± 0.00143
